Test results reported in patent publication US6780885B1, “Formulations and methods for administration of pharmacologically or biologically active compounds” (IDEXX Laboratories, Inc., priority 2000, dated 2004).

Experiments:
roundworms (Ascaridia) = experiment: ivermectin formulation in the drinking water of turkeys, roundworm infestation; format: in vivo; settings: in three days
Method: (§1) The 2% ivermectin solution is diluted 20-fold to 0.1% in water. From the 0.1%, 3.4 ml is dissolved in 5 liters (QS) of water. The dose to be administered in order to obtain effective treatment of various parasites depends on the size of the fowl to be treated (i.e., their drinking capacity). A 4.5 kg turkey will typically drink 600-1000 ml of water every 24 hours. This corresponds to a dose of 100-150 μgm/kg/day. […] The effective dose to administer to any other type of animal to treat a particular type of parasite can be easily determined by simply varying the dosage until arriving at an effective dose.
A non-aqueous, stable formulation of ivermectin was prepared and diluted into the drinking water of market male turkeys as described above. […] The birds were treated at levels of 10, 50, 100, 200, 250, 500, 1200, and 1400 mg/kg of body weight/day. […] The formulation was effective at completely eliminating any visible signs of roundworm infestation at levels down to […] body weight/day in three days.

cecal worms (Heterakis) = experiment: ivermectin formulation in the drinking water of turkeys, cecal worms; format: in vivo; settings: in three days
Method: as §1

ivermectin
dose effective to completely eliminate roundworms (Ascaridia) (roundworms (Ascaridia); in drinking water): 200 mg ivermectin/kg body weight/day
elimination of roundworms (roundworms (Ascaridia); formulation in drinking water): complete elimination
dose effective to completely eliminate cecal worms (Heterakis) (cecal worms (Heterakis); in drinking water): 200 mg ivermectin/kg body weight/day
elimination of cecal worms (cecal worms (Heterakis); formulation in drinking water): complete elimination
